{
  "source": "patent US11298334B2",
  "about": "“Use of isothiocyanate compounds” (JC (WUXI) COMPANY, INC., priority 2016, dated 2022)",
  "key": {"[1]": {"tested_on": "volunteers with benign prostatic hyperplasia accompanied by elevated bilirubin", "assay": "Auxiliary detection on total bilirubin and blood lipid, 24 weeks", "format": "in vivo, human", "details": "10, 20 or 30 mg 3 times a day oral", "procedure": "Using the same method as described in Example 2, 24 volunteers with benign prostatic hyperplasia accompanied by elevated bilirubin were recruited. Using the same manner as described in Example 2, subjects meeting the entry criteria were randomly assigned into any of the following four groups at a ratio of 1:1:1:1: administration group (Group A): phenylethyl isothiocyanate 10 mg/time, 3 times a day; administration group (Group D): Phenylethyl isothiocyanate 20 mg/time, 3 times a day; administration group (Group B): phenylethyl isothiocyanate 30 mg/time, 3 times a day; placebo group (C group): phenylethyl isothiocyanate placebo 1 capsule/time, 3 times a day. Oral administration was continued for 24 weeks. The effectiveness and safety of the experiment were evaluated. Effectiveness: 1. benign prostatic hyperplasia: IPSS, QOL, prostate volume, maximal urinary flow rate, residual urine; 2. triglycerides; 3. lipoprotein cholesterol; 4. total bilirubin. Safety: occurrence, process, and solution of all adverse events during treatment."}, "[2]": {"tested_on": "volunteers with only hyperlipidemia", "assay": "Auxiliary detection on blood lipids, 6 weeks", "format": "in vivo, human", "details": "10, 20 or 30 mg 3 times a day oral", "procedure": "Using the same method as described in Example 3 except that 8 volunteers with only hyperlipidemia were recruited and using the same method as described in Example 3. The volunteers were randomly assigned into the following four groups at a ratio of 1:1:1:1: administration group (Group A): phenylethyl isothiocyanate 10 mg/time, 3 times a day; administration group (Group D): phenylethyl isothiocyanate 20 mg/time, 3 times a day; administration group (Group B): phenylethyl isothiocyanate 30 mg/time, 3 times a day; placebo group (Group C): phenylethyl isothiocyanate placebo 1 capsule/time, 3 times a day. Oral administration was continued for 6 weeks."}, "[3]": {"tested_on": "volunteers with only hyperbilirubinemia", "assay": "Auxiliary detection on total bilirubin, 6 weeks", "format": "in vivo, human", "details": "10, 20 or 30 mg 3 times a day oral", "procedure": "The method was the same as described in Example 3, except that 8 volunteers with only hyperbilirubinemia were recruited in the medical research peers. Using the same manner as described in Example 3, the subjects were randomly assigned into any one of the following four groups at a ratio of 1:1:1:1: administration group (Group A): phenylethyl isothiocyanate 10 mg/time, 3 times a day; administration group (Group D): phenylethyl isothiocyanate 20 mg/time, 3 times a day; administration group (Group B): phenylethyl isothiocyanate 30 mg/time, 3 times a day; placebo group (C group): phenylethyl isothiocyanate placebo 1 capsule/time, 3 times a day. Oral administration was continued for 6 weeks."}, "[4]": {"tested_on": "patients with benign prostatic hyperplasia", "assay": "Multicenter randomized double-blind placebo-controlled trial, 24 weeks: serum triglyceride, lipoprotein cholesterol, total bilirubin", "format": "in vivo, human", "details": "for serum high-density lipoprotein, average change value compared with baseline / serum high-density lipoprotein, percentage of average change compared with baseline: Centers No. 11, 13 and 14", "procedure": "A multicenter, randomized, double-blind, placebo parallel control design was used to preliminarily evaluate the safety and efficacy of phenylethyl isothiocyanate capsules on the treatment of BPH patients. Subjects meeting the entry criteria were randomly assigned to any of the following four groups at a ratio of 1:1:1:1: administration group (Group A): phenylethyl isothiocyanate 10 mg/time, 3 times a day; administration group (group D): phenylethyl isothiocyanate 20 mg/time, 3 times a day; administration group (group B): phenylethyl isothiocyanate 30 mg/time, 3 times a day; placebo group (group C): phenylethyl isothiocyanate placebo 1 capsule/time, 3 times a day. Oral administration was continued for 24 weeks. Men between the ages of 50 and 75, healthy, with moderate benign prostatic hyperplasia, no signs of prostate cancer. A total of 240 men participated in the six-month trial. Effectiveness: 1. benign prostatic hyperplasia: IPSS, QOL, prostate volume, the maximal urinary flow rate, residual urine; 2. triglycerides; 3. lipoprotein cholesterol; 4. total bilirubin. Safety: occurrence, process, and solution of all adverse events during treatment. Among the 14 centers in the clinical trial, the serum triglyceride levels and high-density lipoprotein and low-density lipoprotein levels in serum of the subjects were all detected in the center No. 11, center No. 13, and center No. 14."}, "[5]": {"tested_on": "SD rats", "assay": "Hypolipidemic activity in rats: serum triglyceride after 6 months oral gavage", "format": "in vivo, rat", "details": "for TG (serum triglyceride level): at terminal of administration, x ± SD, n = 14", "procedure": "Reagent: phenylethyl isothiocyanate, synthesized by Wuxi Jiexi Pharmaceutical Technology Co., Ltd. The chemical construction was determined by NMR, UV, IR, MS, etc., and its content and purity were determined by HPLC (>99%); Fulinmen Brand corn oil, manufactured by Dongliang Industry (Zhangjiagang) Co., Ltd.\nAnimals: Clean SD rats, half male and half female, weighed 80-100 g, were provided by Shanghai Slac Laboratory Animal Co., Ltd. Free access to drinking water, ambient temperature of 20-25° C., relative humidity of 40%-70%.\nExperimental methods: Male rats with 123-149 g of body weight were randomly divided into 4 groups according to their body weights. Female rats with 116-142 g of body weight were randomly divided into 4 groups according to body weights. In the control group and high dose group, there were 60 in each group. In the medium-dose and low-dose groups, there were 40 in each group, half male and half female. 0, 20, 60, 120 mg/kg of phenethyl isothiocyanate was administered by oral gavage, wherein the test drug was diluted with corn oil. The rats were administered continuously for 6 months, and administered 6 days a week, and administered at the same time every morning.\nObservation items: blood biochemical examination."}},
  "data": [
    {"compound": "S=C=NCCc1ccccc1", "note": "[phenylethyl isothiocyanate]", "values": [
      {"measurement": "high-density lipoprotein level, increase", "setting": "[1]", "result": "10-20%"},
      {"measurement": "low density lipoprotein level, decrease", "setting": "[1]", "result": "15-25%"},
      {"measurement": "total bilirubin level, decrease", "setting": "[1]", "result": "15-25%"},
      {"measurement": "triglyceride level, decrease", "setting": "[1]", "result": "15-25%"},
      {"measurement": "high-density lipoprotein level, increase", "setting": "[2]", "result": "10-20%"},
      {"measurement": "low density lipoprotein level, decrease", "setting": "[2]", "result": "10-25%"},
      {"measurement": "triglyceride level, decrease", "setting": "[2]", "result": "10-25%"},
      {"measurement": "total bilirubin level, decrease", "setting": "[3]", "result": "10-25%"},
      {"measurement": "triglyceride, percentage of average change compared with baseline", "setting": "[4]; Group A, 30 mg (10 mg 3 times a day) oral, 24 weeks", "result": "−6.54", "unit": "%"},
      {"measurement": "total bilirubin, percentage of average change compared with the baseline", "setting": "[4]; Group A, 30 mg, 4 weeks", "result": 2.23, "unit": "%"},
      {"measurement": "total bilirubin, percentage of average change compared with the baseline", "setting": "[4]; Group A, 30 mg, 8 weeks", "result": "−3.15", "unit": "%"},
      {"measurement": "total bilirubin, percentage of average change compared with the baseline", "setting": "[4]; Group A, 30 mg, 16 weeks", "result": "−4.46", "unit": "%"},
      {"measurement": "low-density lipoprotein, average change value compared with baseline", "setting": "[4]; Group A, 30 mg, 24 weeks", "result": 0.0062},
      {"measurement": "low-density lipoprotein, percentage of average change compared with baseline", "setting": "[4]; Group A, 30 mg, 24 weeks", "result": "−0.88", "unit": "%"},
      {"measurement": "total bilirubin levels, average decrease compared with the baseline", "setting": "[4]; Group A, 30 mg, 24 weeks", "result": 8.91, "unit": "%"},
      {"measurement": "total bilirubin, percentage of average change compared with the baseline", "setting": "[4]; Group A, 30 mg, 24 weeks", "result": "−8.91", "unit": "%"},
      {"measurement": "triglyceride levels, average decrease compared with baseline", "setting": "[4]; Group A, 30 mg, 24 weeks", "result": 6.54, "unit": "%"},
      {"measurement": "serum high-density lipoprotein, average change value compared with baseline", "setting": "[4]; Group A, 30 mg, 24 weeks", "result": 0.0063},
      {"measurement": "serum high-density lipoprotein, percentage of average change compared with baseline", "setting": "[4]; Group A, 30 mg, 24 weeks", "result": 1.45, "unit": "%"},
      {"measurement": "triglyceride, percentage of average change compared with baseline", "setting": "[4]; Group B, 90 mg (30 mg 3 times a day) oral, 24 weeks", "result": "−8.59", "unit": "%"},
      {"measurement": "total bilirubin, percentage of average change compared with the baseline", "setting": "[4]; Group B, 90 mg, 4 weeks", "result": 2.18, "unit": "%"},
      {"measurement": "total bilirubin, percentage of average change compared with the baseline", "setting": "[4]; Group B, 90 mg, 8 weeks", "result": "−0.45", "unit": "%"},
      {"measurement": "total bilirubin, percentage of average change compared with the baseline", "setting": "[4]; Group B, 90 mg, 16 weeks", "result": "−8.28", "unit": "%"},
      {"measurement": "low-density lipoprotein, average change value compared with baseline", "setting": "[4]; Group B, 90 mg, 24 weeks", "result": 0.1925},
      {"measurement": "low-density lipoprotein, percentage of average change compared with baseline", "setting": "[4]; Group B, 90 mg, 24 weeks", "result": 6.92, "unit": "%"},
      {"measurement": "total bilirubin levels, average decrease compared with the baseline", "setting": "[4]; Group B, 90 mg, 24 weeks", "result": 6.10, "unit": "%"},
      {"measurement": "total bilirubin, percentage of average change compared with the baseline", "setting": "[4]; Group B, 90 mg, 24 weeks", "result": "−6.10", "unit": "%"},
      {"measurement": "triglyceride levels, average decrease compared with baseline", "setting": "[4]; Group B, 90 mg, 24 weeks", "result": 8.59, "unit": "%"},
      {"measurement": "serum high-density lipoprotein, average change value compared with baseline", "setting": "[4]; Group B, 90 mg, 24 weeks", "result": 0.0938},
      {"measurement": "serum high-density lipoprotein, percentage of average change compared with baseline", "setting": "[4]; Group B, 90 mg, 24 weeks", "result": 7.77, "unit": "%"},
      {"measurement": "triglyceride, percentage of average change compared with baseline", "setting": "[4]; Group D, 60 mg (20 mg 3 times a day) oral, 24 weeks", "result": "−8.58", "unit": "%"},
      {"measurement": "total bilirubin, percentage of average change compared with the baseline", "setting": "[4]; Group D, 60 mg, 4 weeks", "result": 5.21, "unit": "%"},
      {"measurement": "total bilirubin, percentage of average change compared with the baseline", "setting": "[4]; Group D, 60 mg, 8 weeks", "result": 3.34, "unit": "%"},
      {"measurement": "total bilirubin, percentage of average change compared with the baseline", "setting": "[4]; Group D, 60 mg, 16 weeks", "result": "−1.82", "unit": "%"},
      {"measurement": "low-density lipoprotein, average change value compared with baseline", "setting": "[4]; Group D, 60 mg, 24 weeks", "result": "−0.0425"},
      {"measurement": "low-density lipoprotein, percentage of average change compared with baseline", "setting": "[4]; Group D, 60 mg, 24 weeks", "result": 0.05, "unit": "%"},
      {"measurement": "total bilirubin levels, average decrease compared with the baseline", "setting": "[4]; Group D, 60 mg, 24 weeks", "result": 8.55, "unit": "%"},
      {"measurement": "total bilirubin, percentage of average change compared with the baseline", "setting": "[4]; Group D, 60 mg, 24 weeks", "result": "−8.55", "unit": "%"},
      {"measurement": "triglyceride levels, average decrease compared with baseline", "setting": "[4]; Group D, 60 mg, 24 weeks", "result": 8.58, "unit": "%"},
      {"measurement": "serum high-density lipoprotein, average change value compared with baseline", "setting": "[4]; Group D, 60 mg, 24 weeks", "result": 0.1013},
      {"measurement": "serum high-density lipoprotein, percentage of average change compared with baseline", "setting": "[4]; Group D, 60 mg, 24 weeks", "result": 9.15, "unit": "%"},
      {"measurement": "decrease of triglycerides in serum compared with the 0 mg/kg group", "setting": "[5]; female rats, 20 mg/kg", "result": 25.5, "unit": "%"},
      {"measurement": "TG (serum triglyceride level)", "setting": "[5]; female rats, 20 mg/kg oral gavage", "result": "2.13 ± 0.82", "unit": "mmol/L"},
      {"measurement": "decrease of triglycerides in serum compared with the 0 mg/kg group", "setting": "[5]; female rats, 60 mg/kg", "result": 41.2, "unit": "%"},
      {"measurement": "TG (serum triglyceride level)", "setting": "[5]; female rats, 60 mg/kg oral gavage", "result": "1.68 ± 0.63", "unit": "mmol/L"},
      {"measurement": "decrease of triglycerides in serum compared with the 0 mg/kg group", "setting": "[5]; female rats, 120 mg/kg", "result": 52.8, "unit": "%"},
      {"measurement": "TG (serum triglyceride level)", "setting": "[5]; female rats, 120 mg/kg oral gavage", "result": "1.35 ± 0.72", "unit": "mmol/L"},
      {"measurement": "decrease of triglycerides in serum compared with the 0 mg/kg group", "setting": "[5]; male rats, 20 mg/kg", "result": 24.1, "unit": "%"},
      {"measurement": "TG (serum triglyceride level)", "setting": "[5]; male rats, 20 mg/kg oral gavage", "result": "1.73 ± 0.79", "unit": "mmol/L"},
      {"measurement": "decrease of triglycerides in serum compared with the 0 mg/kg group", "setting": "[5]; male rats, 60 mg/kg", "result": 44.3, "unit": "%"},
      {"measurement": "TG (serum triglyceride level)", "setting": "[5]; male rats, 60 mg/kg oral gavage", "result": "1.27 ± 0.38", "unit": "mmol/L"},
      {"measurement": "decrease of triglycerides in serum compared with the 0 mg/kg group", "setting": "[5]; male rats, 120 mg/kg", "result": 56.1, "unit": "%"},
      {"measurement": "TG (serum triglyceride level)", "setting": "[5]; male rats, 120 mg/kg oral gavage", "result": "1.00 ± 0.22", "unit": "mmol/L"}
    ]}
  ]
}
